{"source": "PubChem BioAssay AID2060884", "about": "(Molecular Pharmacology Branch, DTP, NCI, 2025)", "tested_on": "NCI-H929 complex spheroids, viability % test/control", "test": "Anticancer human tumor NCI-H929 cell line growth inhibition [RAS];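 as to all read-outs here: compound exposure lasted seven days before viability was read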;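 as to viability, T/C: 100% = DMSO vehicle control viability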", "settings": "for IC50: curve of first compound; for viability, T/C: stronger effect = lower value", "how_it_was_run": "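Tumour cells grown as complex spheroids with HUVEC endothelial cells and mesenchymal stem cells, treated with RAS pathway inhibitor combinations. Each agent spans half-log steps from near clinical Cmax, or 10 microM where Cmax is unknown.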", "data": [{"smiles": "CC(C)n1nc(-c2ccc3oc(N)nc3c2)c2c(N)ncnc21", "note": "+ CCn1c(-c2cccnc2C(C)OC)c2c3cc(ccc31)N1CCOC(CC(NC(=O)C(C(C)C)N(C)C(=O)C3(F)CCN(C(=O)C#CC(C)(C)N(C)C)CC3)C(=O)N3CCCC(N3)C(=O)OCC(C)(C)C2)C1", "values": [{"measurement": "IC50", "setting": "second compound 0.000949 µM", "result": 33.9, "unit": "nM"}, {"measurement": "IC50", "setting": "second compound 0.003 µM", "result": 38.8, "unit": "nM"}, {"measurement": "IC50", "setting": "second compound 0.00949 µM", "result": 39.4, "unit": "nM"}, {"measurement": "IC50", "setting": "second compound 0.03 µM", "result": 36.1, "unit": "nM"}, {"measurement": "IC50", "setting": "second compound 0.0949 µM", "result": 29.7, "unit": "nM"}, {"measurement": "IC50", "setting": "second compound 0.3 µM", "result": 27.1, "unit": "nM"}, {"measurement": "viability, T/C", "setting": "second compound 0.000949 µM, first compound 0.000316 µM", "result": 104, "unit": "%"}, {"measurement": "viability, T/C", "setting": "second compound 0.000949 µM, first compound 0.001 µM", "result": 103, "unit": "%"}, {"measurement": "viability, T/C", "setting": "second compound 0.000949 µM, first compound 0.00316 µM", "result": 107, "unit": "%"}, {"measurement": "viability, T/C", "setting": "second compound 0.000949 µM, first compound 0.01 µM", "result": 101, "unit": "%"}, {"measurement": "viability, T/C", "setting": "second compound 0.000949 µM, first compound 0.0316 µM", "result": 53.1, "unit": "%"}, {"measurement": "viability, T/C", "setting": "second compound 0.000949 µM, first compound 0.1 µM", "result": 2.22, "unit": "%"}, {"measurement": "viability, T/C", "setting": "second compound 0.003 µM, first compound 0.000316 µM", "result": 105, "unit": "%"}, {"measurement": "viability, T/C", "setting": "second compound 0.003 µM, first compound 0.001 µM", "result": 107, "unit": "%"}, {"measurement": "viability, T/C", "setting": "second compound 0.003 µM, first compound 0.00316 µM", "result": 105, "unit": "%"}, {"measurement": "viability, T/C", "setting": "second compound 0.003 µM, first compound 0.01 µM", "result": 98.5, "unit": "%"}, {"measurement": "viability, T/C", "setting": "second compound 0.003 µM, first compound 0.0316 µM", "result": 60.3, "unit": "%"}, {"measurement": "viability, T/C", "setting": "second compound 0.003 µM, first compound 0.1 µM", "result": 2.31, "unit": "%"}, {"measurement": "viability, T/C", "setting": "second compound 0.00949 µM, first compound 0.000316 µM", "result": 101, "unit": "%"}, {"measurement": "viability, T/C", "setting": "second compound 0.00949 µM, first compound 0.001 µM", "result": 105, "unit": "%"}, {"measurement": "viability, T/C", "setting": "second compound 0.00949 µM, first compound 0.00316 µM", "result": 106, "unit": "%"}, {"measurement": "viability, T/C", "setting": "second compound 0.00949 µM, first compound 0.01 µM", "result": 99.8, "unit": "%"}, {"measurement": "viability, T/C", "setting": "second compound 0.00949 µM, first compound 0.0316 µM", "result": 61.4, "unit": "%"}, {"measurement": "viability, T/C", "setting": "second compound 0.00949 µM, first compound 0.1 µM", "result": 1.89, "unit": "%"}, {"measurement": "viability, T/C", "setting": "second compound 0.03 µM, first compound 0.000316 µM", "result": 97.8, "unit": "%"}, {"measurement": "viability, T/C", "setting": "second compound 0.03 µM, first compound 0.001 µM", "result": 104, "unit": "%"}, {"measurement": "viability, T/C", "setting": "second compound 0.03 µM, first compound 0.00316 µM", "result": 106, "unit": "%"}, {"measurement": "viability, T/C", "setting": "second compound 0.03 µM, first compound 0.01 µM", "result": 100, "unit": "%"}, {"measurement": "viability, T/C", "setting": "second compound 0.03 µM, first compound 0.0316 µM", "result": 56.2, "unit": "%"}, {"measurement": "viability, T/C", "setting": "second compound 0.03 µM, first compound 0.1 µM", "result": 1.72, "unit": "%"}, {"measurement": "viability, T/C", "setting": "second compound 0.0949 µM, first compound 0.000316 µM", "result": 98.7, "unit": "%"}, {"measurement": "viability, T/C", "setting": "second compound 0.0949 µM, first compound 0.001 µM", "result": 108, "unit": "%"}, {"measurement": "viability, T/C", "setting": "second compound 0.0949 µM, first compound 0.00316 µM", "result": 108, "unit": "%"}, {"measurement": "viability, T/C", "setting": "second compound 0.0949 µM, first compound 0.01 µM", "result": 100, "unit": "%"}, {"measurement": "viability, T/C", "setting": "second compound 0.0949 µM, first compound 0.0316 µM", "result": 47.2, "unit": "%"}, {"measurement": "viability, T/C", "setting": "second compound 0.0949 µM, first compound 0.1 µM", "result": 1.3, "unit": "%"}, {"measurement": "viability, T/C", "setting": "second compound 0.3 µM, first compound 0.000316 µM", "result": 102, "unit": "%"}, {"measurement": "viability, T/C", "setting": "second compound 0.3 µM, first compound 0.001 µM", "result": 107, "unit": "%"}, {"measurement": "viability, T/C", "setting": "second compound 0.3 µM, first compound 0.00316 µM", "result": 108, "unit": "%"}, {"measurement": "viability, T/C", "setting": "second compound 0.3 µM, first compound 0.01 µM", "result": 99.5, "unit": "%"}, {"measurement": "viability, T/C", "setting": "second compound 0.3 µM, first compound 0.0316 µM", "result": 42.4, "unit": "%"}, {"measurement": "viability, T/C", "setting": "second compound 0.3 µM, first compound 0.1 µM", "result": 1.08, "unit": "%"}]}]}
